Test results: US20240246905A1 (University of Leicester, priority 2021, published 2024)

Assays:
[1] = system: MRSA 252; assay: Resistance testing by serial passaging; format: cell-based, S. aureus; details: 18 serial passage cycles
Experimental: Next a serial passage study was undertaken in order to elucidate the speed at which target bacteria might either evolve resistance or select for persister cells within that population following exposure to compound 36.
For resistance development by serial passaging, 5 μL of overnight cultured MRSA 252 cells were added to individual wells in a 96-well plate containing 195 μL of TSB supplemented with a range of antibiotic concentrations and incubated at 37° C. for 18 hours. Ofloxacin served as a control. Wells where bacterial growth was visible after 18 hours were plated on TSA plates and incubated at 37° C. for a further 18 hours. Single colonies obtained from the overnight cultured bacteria were then inoculated into fresh TSB medium, incubated at 37° C. for 18 hours before being used in the next cycle of the resistance testing. This process continued for 18 cycles.

[2] = system: Pseudomonas aeruginosa PA01; assay: Disc diffusion (Kirby-Bauer), zone of inhibition; format: cell-based; details: 500 μg/mL, '/' = no zone
Method in brief: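 Zones of inhibition recorded after 24 h at 37 °C on Mueller-Hinton agar. Agar was inoculated with 1 in 200 diluted 18 h broth cultures, and discs carried 50 μL of antibiotic. Method follows CLSI 2017 disc diffusion.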

[3] = system: late-exponential phase MRSA 252; assay: Time-kill assay; format: cell-based, S. aureus
Experimental: Investigations into the precise mode of action of these compounds was next studies, with time-kill assays, resistance studies, live-dead stain and morphological analysis of bacteria exposed to the compounds providing an insight into the specific mode of action. Time-kill assays were used to evaluate whether the compounds were bacteriostatic or bactericidal.
The mode of inhibitory action of our novel class of compounds was determined by measuring the decrease in CFU over time. […] The pellets were re-suspended in TSB with the antibiotic added at 2× and 4×MIC and incubated at 37° C. Bacterial suspensions mixed with 1 M saline served as a control. […]

[4] = system: MRSA 252; assay: LIVE/DEAD assay (SYTO 9 / propidium iodide); format: cell-based, S. aureus; details: 4×MIC
Experimental: To attempt to further confirm whether the membrane was indeed targeted by compound 41, a LIVE/DEAD assay was performed, in which MRSA 252 was inoculated with two dyes: SYTO 9 and propidium iodide (PI). Cells with compromised membranes will stain fluorescent red whilst those cells with intact membranes will stain fluorescent green. […] Contrary to this, cells with no antibiotic present stained fluorescent green (FIG. 7).
The LIVE/DEAD BacLight™ bacterial viability kit was purchased from Thermo Fischer Scientific and the assay was performed per manufactures instructions. The kit provides two nucleic acid stains; SYTO-9 and propidium iodide (PI), which allows live bacteria with intact membranes to be distinguished from bacteria with compromised membranes. Single colonies of MRSA 252 were added to individual wells containing Melinex® films and 3 mL TSB and incubated at 37° C. for 18 hours with minimal agitation (70 rpm). The growth media was then exposed to the antibiotics at various concentrations and incubated for 10 hours. The medium was then discarded in each well, washed with PBS before 200 μL of a solution containing both nucleic acid stains was added (50 μL of each component in 10 mL PBS) and left to incubate in the dark for 15 minutes at room temperature. […]

[5] = system: S. aureus SH1000 cells; assay: DiSC3(5) membrane potential assay; format: cell-based; details: 16 μg/mL, 180 minutes
Experimental: We next looked to further confirm the cell membrane as being the target site of action for our compounds, by undertaking a membrane depolarization assay using the voltage sensitive dye, 3,3′-dipropylthiacarbocyanine iodide (DiSC3(5)).
[…] Cultures of SH1000 were grown to OD600 of 0.2 before being incubated further with 0.1 M KCl and 2 μM DiSC3(5) for 30 minutes at 37° C. […] Subsequently, the cells were centrifuged and 1 mL of supernatant mixed with 1 mL DMSO; the centrifuged pellet was lysed in DMSO for 10 minutes and added to equal volumes of HEPES and glucose buffer. Extracellular and intracellular fluorescence was measured on a LS 45 luminescence spectrometer (PerkinElmer) at an excitation and emission of 622 nm and 670 nm respectively. Consequently, the membrane potential was calculated using the Nernst equation and expressed as a percentage of the initial value.

[6] = system: S. aureus SH1000 cells; assay: Potassium leakage detection; format: cell-based; details: 60 minutes, MRSA cells
Experimental: The potassium leakage of S. aureus SH1000 cells exposed to compounds was conducted as per previously published methods. Briefly, compounds were incubated with mid-exponential-phase S. aureus SH1000 cells in HEPES buffer (˜10^8 CFU/ml) for 60 minutes. Cells were then removed by centrifugation, and the supernatant was assayed for K^+ efflux by using a Perkin-Elmer 11001B atomic absorption instrument in flame emission mode (wavelength, 766.5 nm; slit, 0.7 nm high; air-acetylene flame). Prior to measurements, the instrument was calibrated using analytical grade potassium standards.

[7] = system: MRSA 252; assay: MIC before and after cysteine addition; format: cell-based, S. aureus; details: up to 24 hours
Excerpt: It is well known that compounds bearing an isocyanide group are usually highly reactive, capable of reacting with electrophiles, nucleophiles and radicals.^(30) As a result, it was important to identify any stability issues which might be encountered by the lead compounds, both in storage and in the presence of glutathione and cysteine. […] Another common feature of the lead compounds is the vinyl fragment. It was hypothesized that the presence of glutathione and cysteine found in eukaryotic cells could potentially interact with the electrophilic alkene group in the compounds, thus shutting down their antibiotic activity. To probe this potentially detrimental in vivo process, compound 39 was subjected to glutathione for up to 24 hours whilst compound 41 was added to cysteine for the same length of time.

[8] = system: Galleria mellonella; assay: Systemic toxicity, Galleria mellonella survival; details: n = 10, injection of 500 μg/mL
Experimental: Galleria mellonella wax worms purchased from www.livefoods.co.uk were inoculated with 10 μL of a series of dilutions of the antibiotics synthesised in-house. The antibiotic concentrations chosen for this study were the following: 1000 μg/mL, 500 μg/mL, 250 μg/mL, 125 μg/mL and 31.25 μg/mL. Each dilution was injected into 10 individual wax worms through their last pro-leg. The injected wax worms were stored at 25° C. for 5 days. The cytotoxicity was determined as the percentage survival rate of Galleria mellonella Wax worms after 5 days inoculation.

## [C-]#[N+]/C=C/c1ccc(O)cc1/C=C/c1ccccc1 [Compound 36, 4-((E Z)-2-Isocyanovinyl)-3-((E)-styryl)phenol]
[1]
  change of MIC after serial passage (in words): no increase in the MIC

## [C-]#[N+]/C=C/c1ccc(NC(C)=O)cc1/C=C/c1ccccc1 [Compound 41, N-(4-((E)-2-Isocyanovinyl)-3-((E)-styryl)phenyl)acetamide]
[2]
  zone of inhibition at 500 µg/mL: 16 mm
[3]; 20 hours exposure, 2×MIC, MRSA 252 in TSB
  reduction in bacterial density: 4 log
[3]; late-exponential phase MRSA 252
  bacteriostatic or bactericidal: bactericidal activity
[4]
  membrane integrity (LIVE/DEAD stain): significant membrane damage
[5]
  reduction in the proton motive force: 70%
[6]
  dissipation of cellular K+ ions: 50%
[7]
  MIC in the presence of cysteine: remained unaffected

## (2-Isocyanovinyl)-4-acetaamido benzene [Compound 22]
[8]
  % survival after 5 days: 70%
